The values below come from PMC12538393 (RSC Advances, 2025).

One test deals with hypertensive animals. As to conditions: snake venom peptide; cited from earlier work.
For the next test, the target named is ACE (Homo sapiens, UniProt P12821). Briefly: In vitro ACE inhibitory activity, DOJINDO ACE Kit-WST reagent box. The class given is biochemical.
ACE, sequence (P12821 30-1306, species assumed): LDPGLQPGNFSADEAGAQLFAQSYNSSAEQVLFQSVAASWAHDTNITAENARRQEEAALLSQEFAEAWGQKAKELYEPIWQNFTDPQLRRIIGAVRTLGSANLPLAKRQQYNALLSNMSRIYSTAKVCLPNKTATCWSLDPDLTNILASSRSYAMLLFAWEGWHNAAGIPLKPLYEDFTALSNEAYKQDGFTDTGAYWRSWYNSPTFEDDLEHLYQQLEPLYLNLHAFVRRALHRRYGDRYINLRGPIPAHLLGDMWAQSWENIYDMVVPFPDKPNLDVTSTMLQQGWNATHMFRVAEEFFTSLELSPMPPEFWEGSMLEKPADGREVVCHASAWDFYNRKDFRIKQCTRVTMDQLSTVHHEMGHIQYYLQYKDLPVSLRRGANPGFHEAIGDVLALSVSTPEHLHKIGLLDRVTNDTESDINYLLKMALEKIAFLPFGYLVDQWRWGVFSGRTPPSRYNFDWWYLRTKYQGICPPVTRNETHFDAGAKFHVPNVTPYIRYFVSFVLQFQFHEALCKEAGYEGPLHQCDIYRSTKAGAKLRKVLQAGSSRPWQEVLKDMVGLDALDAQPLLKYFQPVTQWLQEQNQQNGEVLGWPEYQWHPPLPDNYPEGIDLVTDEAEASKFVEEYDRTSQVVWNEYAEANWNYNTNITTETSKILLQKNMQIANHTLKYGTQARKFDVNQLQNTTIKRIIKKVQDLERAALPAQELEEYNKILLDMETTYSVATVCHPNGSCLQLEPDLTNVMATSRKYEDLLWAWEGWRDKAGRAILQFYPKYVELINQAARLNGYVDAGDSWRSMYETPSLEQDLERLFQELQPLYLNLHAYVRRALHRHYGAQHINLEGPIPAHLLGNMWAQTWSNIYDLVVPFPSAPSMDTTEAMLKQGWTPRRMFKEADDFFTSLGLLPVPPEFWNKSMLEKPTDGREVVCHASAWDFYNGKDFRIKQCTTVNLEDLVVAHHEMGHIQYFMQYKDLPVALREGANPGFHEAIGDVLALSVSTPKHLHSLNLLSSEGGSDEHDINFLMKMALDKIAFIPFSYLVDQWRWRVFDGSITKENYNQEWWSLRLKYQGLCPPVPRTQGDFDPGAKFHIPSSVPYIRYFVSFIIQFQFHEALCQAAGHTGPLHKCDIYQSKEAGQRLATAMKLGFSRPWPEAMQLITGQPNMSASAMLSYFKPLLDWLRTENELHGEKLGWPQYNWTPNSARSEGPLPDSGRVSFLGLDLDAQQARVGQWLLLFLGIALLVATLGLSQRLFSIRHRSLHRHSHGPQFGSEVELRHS

As to Pyr-Trp-Pro-Arg-Pro-Gln-Ile-Pro-Pro, in the test on hypertensive animals, the “antihypertensive effect for hypertensive animals” value is “best antihypertensive effect for hypertensive animals”. On to H-Leu-Arg-Asn-OH [D1], for which the “ACE-inhibitory activity, comparison in words” value on ACE is given as “potencies are still higher than that of compound 144”. Regarding H-Asp-Arg-Tyr-OH [D2], the “ACE-inhibitory activity, comparison in words” value on ACE was “potencies are still higher than that of compound 144”.
